# In PMC9127750, “Structure-based design of CDC42 effector interaction inhibitors for the treatment of cancer” (Cell reports, 2022):
# Values joined by “and” are separate entries in the source; they are usually repeats but may differ in a detail not shown here. Identical values can stand only once.
# Tested on: WM3248 melanoma cells, 486 antibodies
# Assay: Reverse phase protein arrays (RPPA);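 on CA9.R.C RPPA level: ratio of treated to vehicle (0 µM) normalized linear protein signal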;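 on CD171.M.V RPPA level: ratio of treated to vehicle (0 µM) normalized linear protein signal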
# Type: cell-based, Human
# Conditions: 10 uM
# Description: Pellets were snap frozen in liquid nitrogen and shipped to MD Anderson Cancer Center core RPPA facility for RPPA analysis (Table S5). Three biological replicates for each sample were generated.
# Nomenclatures on the RPPA heatmaps: name_of_antibody.species_of_antibody.status_of_antibody. V - antibody validated; C - validation of antibody in progress; Q - antibody nonspecific; E – under evaluation; antibodies raised in M - mouse, G - goat, R - rabbit, or T - rat.
structure (smiles),measurement,setting,value
"CN(C)c1cccc(Nc2cc(-c3ccccc3)nc(C3CCNCC3)n2)c1 [ARN22089, N1,N1-dimethyl-N3-(6-phenyl-2-(piperidin-4-yl)pyrimidin-4-yl)benzene-1,3-diamine]","RPPA signal, antibody VEGFR.2_pY1175.R.C, Average",average of 3 replicates,1.049
same,"RPPA signal, antibody VHL.EPPK1.M.C, Average",average of 3 replicates,1.196
same,"RPPA signal, antibody VHL.R.C, Average",average of 3 replicates,1.035
same,"RPPA signal, antibody Vinculin.M.V, Average",average of 3 replicates,0.966
same,"RPPA signal, antibody WIPI1.R.C, Average",average of 3 replicates,1.121
same,"RPPA signal, antibody WIPI2.R.C, Average",average of 3 replicates,0.943
same,"RPPA signal, antibody WTAP.R.V, Average",average of 3 replicates,1.119
same,"RPPA signal, antibody Wee1.R.C, Average",average of 3 replicates,1.020
same,"RPPA signal, antibody Wee1_pS642.R.C, Average",average of 3 replicates,0.998
same,"RPPA signal, antibody XBP.1.G.C, Average",average of 3 replicates,1.065
same,"RPPA signal, antibody XIAP.R.C, Average",average of 3 replicates,1.012
same,"RPPA signal, antibody XPA.M.V, Average",average of 3 replicates,1.058
same,"RPPA signal, antibody XRCC1.R.C, Average",average of 3 replicates,1.060
same,"RPPA signal, antibody YAP_pS127.R.V, Average",average of 3 replicates,0.978
same,"RPPA signal, antibody YB1_pS102.R.V, Average",average of 3 replicates,0.958
same,"RPPA signal, antibody YES1.R.V, Average",average of 3 replicates,1.020
same,"RPPA signal, antibody YTHDF2.R.V, Average",average of 3 replicates,0.990
same,"RPPA signal, antibody YTHDF3.R.C, Average",average of 3 replicates,1.018
same,"RPPA signal, antibody ZAP.70.R.V, Average",average of 3 replicates,1.001
same,"RPPA signal, antibody ZEB1.R.V, Average",average of 3 replicates,1.024
same,"RPPA signal, antibody TSC1.R.C",individual replicates,0.828 and 0.939
same,"RPPA signal, antibody TTF1.R.V",individual replicates,0.920 and 0.873 and 1.035
same,"RPPA signal, antibody TUFM.R.V",individual replicates,1.384 and 1.533
same,"RPPA signal, antibody Tuberin.R.V",individual replicates,1.063 and 0.958 and 0.778
same,"RPPA signal, antibody Tuberin_pT1462.R.V",individual replicates,1.389 and 0.896
same,"RPPA signal, antibody Twist.M.C",individual replicates,1.022 and 1.114
same,"RPPA signal, antibody Tyro3.R.V",individual replicates,1.207 and 1.432 and 1.052
same,"RPPA signal, antibody U.Histone.H2B.R.C",individual replicates,0.675 and 0.846 and 0.974
same,"RPPA signal, antibody UBAC1.R.V",individual replicates,0.909 and 0.974 and 0.962
same,"RPPA signal, antibody UBQLN4.M.C",individual replicates,1.002 and 0.908 and 1.014
same,"RPPA signal, antibody UGT1A.M.V",individual replicates,1.078 and 1.131 and 1.024
same,"RPPA signal, antibody ULK1_pS757.R.C",individual replicates,0.907 and 0.952
same,"RPPA signal, antibody UQCRC2.M.C",individual replicates,0.984 and 1.001 and 0.779
same,"RPPA signal, antibody UVRAG.R.C",individual replicates,0.941 and 0.945 and 1.016
same,"RPPA signal, antibody VASP.R.V",individual replicates,0.853 and 0.873 and 0.935
same,"RPPA signal, antibody VAV1.R.C",individual replicates,0.917 and 0.930 and 0.971
same,"RPPA signal, antibody VEGFR.2.R.V",individual replicates,0.830 and 0.863 and 1.064
same,"RPPA signal, antibody VEGFR.2_pY1175.R.C",individual replicates,1.135 and 1.035 and 0.978
same,"RPPA signal, antibody VHL.EPPK1.M.C",individual replicates,1.361 and 1.047
same,"RPPA signal, antibody VHL.R.C",individual replicates,1.048 and 1.060 and 0.997
same,"RPPA signal, antibody Vinculin.M.V",individual replicates,0.834 and 1.032 and 1.034
same,"RPPA signal, antibody WIPI1.R.C",individual replicates,1.084 and 1.260 and 1.018
same,"RPPA signal, antibody WIPI2.R.C",individual replicates,1.004 and 0.919 and 0.906
same,"RPPA signal, antibody WTAP.R.V",individual replicates,0.973 and 1.303 and 1.081
same,"RPPA signal, antibody Wee1.R.C",individual replicates,0.837 and 1.193 and 1.031
same,"RPPA signal, antibody Wee1_pS642.R.C",individual replicates,0.842 and 1.057
same,"RPPA signal, antibody XBP.1.G.C",individual replicates,1.054 and 1.065 and 1.076
same,"RPPA signal, antibody XIAP.R.C",individual replicates,0.980 and 0.995 and 1.063
same,"RPPA signal, antibody XPA.M.V",individual replicates,0.998 and 1.083
same,"RPPA signal, antibody XPF.R.C",individual replicates,1.061 and 1.058 and 1.015
same,"RPPA signal, antibody XRCC1.R.C",individual replicates,1.098 and 1.017
same,"RPPA signal, antibody YAP.R.C",individual replicates,1.046 and 1.136 and 1.017
same,"RPPA signal, antibody YAP_pS127.R.V",individual replicates,0.857 and 1.020 and 1.056
same,"RPPA signal, antibody YB1_pS102.R.V",individual replicates,0.792 and 0.995
same,"RPPA signal, antibody YES1.R.V",individual replicates,0.963 and 1.023
same,"RPPA signal, antibody YTHDF2.R.V",individual replicates,0.973 and 0.926
same,"RPPA signal, antibody YTHDF3.R.C",individual replicates,1.046 and 1.052 and 0.954
same,"RPPA signal, antibody ZAP.70.R.V",individual replicates,0.965 and 0.999
same,"RPPA signal, antibody ZEB1.R.V",individual replicates,0.993 and 0.988
same,C.Raf.R.C RPPA level,replicates,1.022 and 0.897 and 0.901
same,C.Raf_pS338.R.V RPPA level,replicates,0.937 and 0.962
same,CA9.R.C RPPA level,replicates,0.963 and 0.920 and 1.058
same,CD2.M.C RPPA level,replicates,1.046 and 1.013
same,CD4.R.V RPPA level,replicates,0.841 and 0.982 and 0.984
same,CD5.M.C RPPA level,replicates,1.032 and 1.016
same,CD20.R.C RPPA level,replicates,0.915 and 1.113 and 1.048
same,CD26.R.V RPPA level,replicates,0.862 and 0.937 and 1.046
same,CD29.M.V RPPA level,replicates,1.013 and 0.983 and 1.052
same,CD31.M.V RPPA level,replicates,1.033 and 1.057 and 1.013
same,CD38.R.C RPPA level,replicates,0.895 and 0.963
same,CD44.R.C RPPA level,replicates,1.029 and 1.050
same,CD45.M.V RPPA level,replicates,1.006 and 1.019
same,CD49b.M.V RPPA level,replicates,1.003 and 0.999
same,CD68.M.C RPPA level,replicates,1.022 and 1.011
same,CD74.M.V RPPA level,replicates,0.984 and 1.053
same,CD134.R.V RPPA level,replicates,1.005 and 1.057 and 0.995
same,CD171.M.V RPPA level,replicates,0.591 and 0.987 and 1.115
same,CDK1_pT14.R.C RPPA level,replicates,1.201 and 0.649 and 0.946
same,CDK9.R.V RPPA level,replicates,1.078 and 0.919
same,CDKN2A.R.C RPPA level,replicates,1.006 and 1.160
same,CDT1.R.V RPPA level,replicates,0.973 and 1.157 and 1.014
